Experimental data as given in ChEMBL document CHEMBL3608308, “Design, synthesis and antiproliferative activity of novel heterobivalent hybrids based on imidazo[2,1-b][1,3,4]thiadiazole and imidazo[2,1-b][1,3]thiazole scaffolds” (Eur J Med Chem, 2015).

Columns and labels:
Assay type in all cases: functional
CCRF-CEM = experiment: Antiproliferative activity against human CEM cells assessed as inhibition of cell proliferation incubated for 3 days by Coulter counter based assay; conditions: 72 h
L1210 = experiment: Antiproliferative activity against mouse L1210 cells assessed as inhibition of cell proliferation incubated for 2 days by Coulter counter based assay; conditions: L1210, 48 h
HeLa = experiment: Antiproliferative activity against human HeLa cells assessed as inhibition of cell proliferation incubated for 4 days by Coulter counter based assay; conditions: 96 h
FM3A = experiment: Antiproliferative activity against mouse FM3A cells assessed as inhibition of cell proliferation incubated for 2 days by Coulter counter based assay; conditions: 48 h

Row | Structure (SMILES) | IC50 (CCRF-CEM) [µM] | IC50 (L1210) [µM] | IC50 (HeLa) [µM] | IC50 (FM3A) [µM]
1 | Nc1cccc(-c2cn3nc(CCc4ccccc4)sc3n2)c1 | 30 | 31 | 242 | 29
2 | C=C(Br)C(=O)Nc1cccc(-c2cn3nc(-c4ccc(C)cc4)sc3n2)c1 | 1.7 | 0.92 | 2 | 1.2
3 | C=C(Br)C(=O)Nc1cccc(-c2cn3nc(CCc4ccccc4)sc3n2)c1 | 4.2 | 2.2 | 3.3 | 2.6
4 | C=C(Br)C(=O)Nc1cccc(-c2cn3nc(Cc4cccc(OC)c4)sc3n2)c1 | 3.1 | 2 | 2.5 | 1.1
5 | COc1ccc(-c2nn3cc(-c4cccc(N)c4)nc3s2)cc1 | ≥ 250 | ≥ 250 | ≥ 250 | 74
6 | Nc1cccc(-c2cn3c(-c4ccccc4)csc3n2)c1 | 29 | 85 | 60 | 34
7 | C=C(Br)C(=O)Nc1cccc(-c2cn3c(-c4ccccc4)csc3n2)c1 | 2.8 | 1.3 | 3.4 | 1.3
8 | Nc1cccc(-c2cn3nc(-c4ccc(F)cc4)sc3n2)c1 | ≥ 250 | ≥ 250 | ≥ 250 | 33
9 | Cc1ccc(-c2nn3cc(-c4cccc(N)c4)nc3s2)cc1 | 5.9 | 4.8 | 8.9 | 5.8
10 | COc1cccc(Cc2nn3cc(-c4cccc(N)c4)nc3s2)c1 | 40 | 21 | 24 | 10
11 | Nc1cccc(-c2cn3nc(Cc4ccccc4)sc3n2)c1 | 37 | 7.4 | 24 | 4.7
12 | CCc1ccc(-c2nn3cc(-c4cccc(N)c4)nc3s2)cc1 | 22 | 6 | 8.1 | 8.2
13 | COc1cccc(-c2nn3cc(-c4cccc(N)c4)nc3s2)c1 | > 250 | > 250 | 230 | 29
14 | C=C(Br)C(=O)Nc1cccc(-c2cn3nc(Cc4ccccc4)sc3n2)c1 | 4.2 | 3 | 4.5 | 3
15 | CCOc1ccc(-c2nn3cc(-c4cccc(N)c4)nc3s2)cc1 | > 250 | 155 | 94 | ≥ 250
16 | C=C(Br)C(=O)Nc1cccc(-c2cn3nc(Cc4ccc(Cl)cc4)sc3n2)c1 | 3.3 | 2.3 | 2.7 | 1.1
17 | COc1ccc(Cc2nn3cc(-c4cccc(N)c4)nc3s2)cc1 | ≥ 250 | 227 | 191 | 100
18 | Nc1cccc(-c2cn3c(-c4ccc(Cl)cc4)csc3n2)c1 | 21 | 22 | 17 | 11
19 | C=C(Br)C(=O)Nc1cccc(-c2cn3nc(-c4ccc(CC)cc4)sc3n2)c1 | 3.4 | 2.2 | 3.2 | 3.3
20 | C=C(Br)C(=O)Nc1cccc(-c2cn3nc(Cc4ccc(OC)cc4)sc3n2)c1 | 2.3 | 1.4 | 2.3 | 0.85
21 | Nc1cccc(-c2cn3nc(-c4ccccc4)sc3n2)c1 | 33 | 32 | 26 | 14
22 | C=C(Br)C(=O)Nc1cccc(-c2cn3nc(-c4ccccc4)sc3n2)c1 | 0.96 | 0.6 | 1.4 | 0.9
23 | Nc1cccc(-c2cn3nc(-c4cccs4)sc3n2)c1 | > 250 | > 250 | > 250 | > 250
24 | C=C(Br)C(=O)Nc1cccc(-c2cn3nc(-c4ccc(Cl)cc4)sc3n2)c1 | 3.2 | 1.4 | 3 | 2
25 | Nc1cccc(-c2cn3nc(-c4ccc(Cl)cc4)sc3n2)c1 | > 250 | ≥ 250 | 160 | 160
